{
  "source": "patent US4639433A",
  "about": "“Glycopeptide derivatives” (Eli Lilly and Company, priority 1985, dated 1987)",
  "key": {"[1]": {"test_system": "Staphylococcus epidermidis EPI1", "settings": "agar dilution"}, "Streptococcus pneumoniae": {"test_system": "Streptococcus pneumoniae", "experiment": "Experimental bacterial infection in mice, ED50", "format": "in vivo", "settings": "two doses, administered subcutaneously"}, "[2]": {"test_system": "Haemophilus influenzae C.L.", "settings": "agar dilution"}, "[3]": {"test_system": "Klebsiella pneumoniae KAE", "settings": "agar dilution"}, "[4]": {"test_system": "Streptococcus pyogenes C203", "settings": "agar dilution"}, "[5]": {"test_system": "Staphylococcus aureus V41", "settings": "agar dilution"}, "[6]": {"test_system": "Streptococcus sp. group D 2041", "settings": "agar dilution"}, "[7]": {"test_system": "Streptococcus faecium ATCC 9790", "settings": "agar dilution"}, "[8]": {"test_system": "Staphylococcus aureus X400", "settings": "agar dilution"}, "Staphylococcus aureus": {"test_system": "Staphylococcus aureus", "experiment": "Experimental bacterial infection in mice, ED50", "format": "in vivo", "settings": "two doses, administered subcutaneously"}, "Escherichia coli TEM": {"test_system": "Escherichia coli TEM", "settings": "agar dilution"}, "Escherichia coli N10": {"test_system": "Escherichia coli N10", "settings": "agar dilution"}, "[9]": {"test_system": "Streptococcus pneumoniae Park 1", "settings": "agar dilution"}, "[10]": {"test_system": "Staphylococcus epidermidis 222", "settings": "agar dilution"}, "Streptococcus pyogenes": {"test_system": "Streptococcus pyogenes", "experiment": "Experimental bacterial infection in mice, ED50", "format": "in vivo", "settings": "two doses, administered subcutaneously"}, "[11]": {"test_system": "Staphylococcus aureus NRRL B313", "settings": "agar dilution"}, "[12]": {"test_system": "Klebsiella pneumoniae X68", "settings": "agar dilution"}, "[13]": {"test_system": "Haemophilus influenzae 76", "settings": "agar dilution"}, "[14]": {"test_system": "Klebsiella pneumoniae X26", "settings": "agar dilution"}, "Escherichia coli EC14": {"test_system": "Escherichia coli EC14", "settings": "agar dilution"}, "[15]": {"test_system": "Staphylococcus aureus S13E", "settings": "agar dilution"}},
  "data": [
    {"smiles": "CCCCCCCCCCCC(=O)NC1(C)CC(OC2C(Oc3c4cc5cc3Oc3ccc(cc3Cl)C(O)C3NC(=O)C(NC(=O)C5NC(=O)C(CC(N)=O)NC(=O)C(NC(=O)C(CC(C)C)NC)C(O)c5ccc(c(Cl)c5)O4)c4ccc(O)c(c4)-c4c(O)cc(O)cc4C(C(=O)O)NC3=O)OC(CO)C(O)C2O)OC(C)C1O", "note": "(stereo not drawn) [Compound 12, N^van --(1-oxo-n-dodecyl)vancomycin]", "values": [
      {"measurement": "MIC", "setting": "[1]", "value": 2, "unit": "µg/mL"},
      {"measurement": "ED50", "setting": "Streptococcus pneumoniae", "value": 0.9, "unit": "mg/kg/2"},
      {"measurement": "MIC", "setting": "[2]", "value": "-- (not active at 128 mcg/ml)"},
      {"measurement": "MIC", "setting": "[3]", "value": "-- (not active at 128 mcg/ml)"},
      {"measurement": "MIC", "setting": "[4]", "value": 0.5, "unit": "µg/mL"},
      {"measurement": "MIC", "setting": "[5]", "value": 0.25, "unit": "µg/mL"},
      {"measurement": "MIC", "setting": "[6]", "value": 0.5, "unit": "µg/mL"},
      {"measurement": "MIC", "setting": "[7]", "value": 0.5, "unit": "µg/mL"},
      {"measurement": "MIC", "setting": "[8]", "value": 0.5, "unit": "µg/mL"},
      {"measurement": "ED50", "setting": "Staphylococcus aureus", "value": 6.8, "unit": "mg/kg/2"},
      {"measurement": "MIC", "setting": "Escherichia coli TEM", "value": "-- (not active at 128 mcg/ml)"},
      {"measurement": "MIC", "setting": "Escherichia coli N10", "value": "-- (not active at 128 mcg/ml)"},
      {"measurement": "MIC", "setting": "[9]", "value": 0.5, "unit": "µg/mL"},
      {"measurement": "MIC", "setting": "[10]", "value": 0.5, "unit": "µg/mL"},
      {"measurement": "ED50", "setting": "Streptococcus pyogenes", "value": 1.6, "unit": "mg/kg/2"},
      {"measurement": "MIC", "setting": "[11]", "value": 0.25, "unit": "µg/mL"},
      {"measurement": "MIC", "setting": "[12]", "value": "-- (not active at 128 mcg/ml)"},
      {"measurement": "MIC", "setting": "[13]", "value": "-- (not active at 128 mcg/ml)"},
      {"measurement": "MIC", "setting": "[14]", "value": "-- (not active at 128 mcg/ml)"},
      {"measurement": "MIC", "setting": "Escherichia coli EC14", "value": "-- (not active at 128 mcg/ml)"},
      {"measurement": "MIC", "setting": "[15]", "value": 0.5, "unit": "µg/mL"}
    ]},
    {"smiles": "CCCC(=O)NC1(C)CC(OC2C(Oc3c4cc5cc3Oc3ccc(cc3Cl)C(O)C3NC(=O)C(NC(=O)C5NC(=O)C(CC(N)=O)NC(=O)C(NC(=O)C(CC(C)C)NC)C(O)c5ccc(c(Cl)c5)O4)c4ccc(O)c(c4)-c4c(O)cc(O)cc4C(C(=O)O)NC3=O)OC(CO)C(O)C2O)OC(C)C1O", "note": "(stereo not drawn) [Compound 1, N^van --(1-oxo-n-butyl)vancomycin]", "values": [
      {"measurement": "MIC", "setting": "[1]", "value": 8, "unit": "µg/mL"},
      {"measurement": "ED50", "setting": "Streptococcus pneumoniae", "value": 3.6, "unit": "mg/kg/2"},
      {"measurement": "MIC", "setting": "[2]", "value": "-- (not active at 128 mcg/ml)"},
      {"measurement": "MIC", "setting": "[3]", "value": "-- (not active at 128 mcg/ml)"},
      {"measurement": "MIC", "setting": "[4]", "value": 1, "unit": "µg/mL"},
      {"measurement": "MIC", "setting": "[5]", "value": 2, "unit": "µg/mL"},
      {"measurement": "MIC", "setting": "[6]", "value": 8, "unit": "µg/mL"},
      {"measurement": "MIC", "setting": "[7]", "value": 2, "unit": "µg/mL"},
      {"measurement": "MIC", "setting": "[8]", "value": 2, "unit": "µg/mL"},
      {"measurement": "ED50", "setting": "Staphylococcus aureus", "value": 6.3, "unit": "mg/kg/2"},
      {"measurement": "MIC", "setting": "Escherichia coli TEM", "value": "-- (not active at 128 mcg/ml)"},
      {"measurement": "MIC", "setting": "Escherichia coli N10", "value": "-- (not active at 128 mcg/ml)"},
      {"measurement": "MIC", "setting": "[9]", "value": 1, "unit": "µg/mL"},
      {"measurement": "MIC", "setting": "[10]", "value": 4, "unit": "µg/mL"},
      {"measurement": "ED50", "setting": "Streptococcus pyogenes", "value": 5.5, "unit": "mg/kg/2"},
      {"measurement": "MIC", "setting": "[11]", "value": 2, "unit": "µg/mL"},
      {"measurement": "MIC", "setting": "[12]", "value": "-- (not active at 128 mcg/ml)"},
      {"measurement": "MIC", "setting": "[13]", "value": "-- (not active at 128 mcg/ml)"},
      {"measurement": "MIC", "setting": "[14]", "value": "-- (not active at 128 mcg/ml)"},
      {"measurement": "MIC", "setting": "Escherichia coli EC14", "value": "-- (not active at 128 mcg/ml)"},
      {"measurement": "MIC", "setting": "[15]", "value": 2, "unit": "µg/mL"}
    ]},
    {"smiles": "CCCCCCCCCCCCCC(=O)NC1(C)CC(OC2C(Oc3c4cc5cc3Oc3ccc(cc3Cl)C(O)C3NC(=O)C(NC(=O)C5NC(=O)C(CC(N)=O)NC(=O)C(NC(=O)C(CC(C)C)NC)C(O)c5ccc(c(Cl)c5)O4)c4ccc(O)c(c4)-c4c(O)cc(O)cc4C(C(=O)O)NC3=O)OC(CO)C(O)C2O)OC(C)C1O", "note": "(stereo not drawn) [Compound 14, N^van --(1-oxo-n-tetradecyl)vancomycin]", "values": [
      {"measurement": "MIC", "setting": "[1]", "value": 8, "unit": "µg/mL"},
      {"measurement": "ED50", "setting": "Streptococcus pneumoniae", "value": 1.3, "unit": "mg/kg/2"},
      {"measurement": "MIC", "setting": "[2]", "value": 128, "unit": "µg/mL"},
      {"measurement": "MIC", "setting": "[3]", "value": "-- (not active at 128 mcg/ml)"},
      {"measurement": "MIC", "setting": "[4]", "value": 2, "unit": "µg/mL"},
      {"measurement": "MIC", "setting": "[5]", "value": 2, "unit": "µg/mL"},
      {"measurement": "MIC", "setting": "[6]", "value": 0.5, "unit": "µg/mL"},
      {"measurement": "MIC", "setting": "[7]", "value": 0.5, "unit": "µg/mL"},
      {"measurement": "MIC", "setting": "[8]", "value": 2, "unit": "µg/mL"},
      {"measurement": "ED50", "setting": "Staphylococcus aureus", "value": 6.6, "unit": "mg/kg/2"},
      {"measurement": "MIC", "setting": "Escherichia coli TEM", "value": "-- (not active at 128 mcg/ml)"},
      {"measurement": "MIC", "setting": "Escherichia coli N10", "value": "-- (not active at 128 mcg/ml)"},
      {"measurement": "MIC", "setting": "[9]", "value": 2, "unit": "µg/mL"},
      {"measurement": "MIC", "setting": "[10]", "value": 2, "unit": "µg/mL"},
      {"measurement": "ED50", "setting": "Streptococcus pyogenes", "value": 1.4, "unit": "mg/kg/2"},
      {"measurement": "MIC", "setting": "[11]", "value": 2, "unit": "µg/mL"},
      {"measurement": "MIC", "setting": "[12]", "value": "-- (not active at 128 mcg/ml)"},
      {"measurement": "MIC", "setting": "[13]", "value": 128, "unit": "µg/mL"},
      {"measurement": "MIC", "setting": "[14]", "value": "-- (not active at 128 mcg/ml)"},
      {"measurement": "MIC", "setting": "Escherichia coli EC14", "value": "-- (not active at 128 mcg/ml)"},
      {"measurement": "MIC", "setting": "[15]", "value": 0.5, "unit": "µg/mL"}
    ]},
    {"smiles": "CCCCCCCCCC(=O)NC1(C)CC(OC2C(Oc3c4cc5cc3Oc3ccc(cc3Cl)C(O)C3NC(=O)C(NC(=O)C5NC(=O)C(CC(N)=O)NC(=O)C(NC(=O)C(CC(C)C)NC)C(O)c5ccc(c(Cl)c5)O4)c4ccc(O)c(c4)-c4c(O)cc(O)cc4C(C(=O)O)NC3=O)OC(CO)C(O)C2O)OC(C)C1O", "note": "(stereo not drawn) [Compound 6, N^van-(1-oxo-n-Decyl)vancomycin]", "values": [
      {"measurement": "MIC", "setting": "[1]", "value": 2, "unit": "µg/mL"},
      {"measurement": "ED50", "setting": "Streptococcus pneumoniae", "value": 1.4, "unit": "mg/kg/2"},
      {"measurement": "MIC", "setting": "[2]", "value": "-- (not active at 128 mcg/ml)"},
      {"measurement": "MIC", "setting": "[3]", "value": "-- (not active at 128 mcg/ml)"},
      {"measurement": "MIC", "setting": "[4]", "value": 0.5, "unit": "µg/mL"},
      {"measurement": "MIC", "setting": "[5]", "value": 0.5, "unit": "µg/mL"},
      {"measurement": "MIC", "setting": "[6]", "value": 1, "unit": "µg/mL"},
      {"measurement": "MIC", "setting": "[7]", "value": 0.5, "unit": "µg/mL"},
      {"measurement": "MIC", "setting": "[8]", "value": 0.5, "unit": "µg/mL"},
      {"measurement": "ED50", "setting": "Staphylococcus aureus", "value": 5, "unit": "mg/kg/2"},
      {"measurement": "MIC", "setting": "Escherichia coli TEM", "value": "-- (not active at 128 mcg/ml)"},
      {"measurement": "MIC", "setting": "Escherichia coli N10", "value": "-- (not active at 128 mcg/ml)"},
      {"measurement": "MIC", "setting": "[9]", "value": 1, "unit": "µg/mL"},
      {"measurement": "MIC", "setting": "[10]", "value": 1, "unit": "µg/mL"},
      {"measurement": "ED50", "setting": "Streptococcus pyogenes", "value": 2.9, "unit": "mg/kg/2"},
      {"measurement": "MIC", "setting": "[11]", "value": 0.5, "unit": "µg/mL"},
      {"measurement": "MIC", "setting": "[12]", "value": "-- (not active at 128 mcg/ml)"},
      {"measurement": "MIC", "setting": "[13]", "value": "-- (not active at 128 mcg/ml)"},
      {"measurement": "MIC", "setting": "[14]", "value": "-- (not active at 128 mcg/ml)"},
      {"measurement": "MIC", "setting": "Escherichia coli EC14", "value": "-- (not active at 128 mcg/ml)"},
      {"measurement": "MIC", "setting": "[15]", "value": 0.5, "unit": "µg/mL"}
    ]}
  ]
}
